Results on 25 compounds are retold here after patent USRE38257E1, “Piperdine derivatives and hypotensives containing the same” (Ajinomoto Co., Inc., priority 1988, dated 2003).

Where a name gives a salt, the structure may show the parent alone.

The test system of the experiment is male spontaneously hypertensive rats. Briefly: Decrease in systolic blood pressure in spontaneously hypertensive rats after intravenous bolus injection, indirect (tail-cuff) method. The experiment is classed as in vivo, rat. Particulars: for Decrease in systolic blood pressure (mmHg) time after administration (hour) 0.5: 0.5 hour after administration; for Decrease in systolic blood pressure (mmHg) time after administration (hour) 4: 4 hours after administration. On the procedure:
As test animals, four male spontaneously hypertensive rats (weight 400 to 440 g) that were sufficiently adapted for feeding and in which hypertension was confirmed were used.
Physiological saline aqueous solution containing 2.5% Nicolle and 2.5% ethanol of sample was intravenously administered by bolus injection at a dose of 1 ml per 1 kg of body weight. Systolic blood pressure after administration was measured by the indirect (tail-cuff) method.

On to `COc1ccc(C(=O)NCCN2CCC(=C3c4ccccc4C=Cc4ccccc43)CC2)cc1OC.Cl` [Example 242, N-(2-(5H-Dibenzo[a,d]cyclohepten-5-ylidene)-1-piperidinyl)ethyl-3′,4′-dimethoxybenzamide hydrochloride], for which, where the note is “dose 10 mg/kg i.v. bolus”, the “Decrease in systolic blood pressure (mmHg) time after administration (hour) 0.5” value (“Decrease in systolic blood pressure … (hour) 0.5” below) is recorded as −28 mmHg and the “Decrease in systolic blood pressure (mmHg) time after administration (hour) 4” value (from here on “Decrease in systolic blood pressure … (hour) 4”) is reported as 7 mmHg.
Take `CCCCCCCCCCCCCCN1CCC(=C2c3ccccc3C=Cc3ccccc32)CC1.Cl` [Example 5, 4-(5H-Dibenzo[a,d]cyclohepten-5-ylidene)-1-tetradecylpiperidine hydrochloride]: for the setting “dose 10 mg/kg i.v. bolus”, the “Decrease in systolic blood pressure … (hour) 0.5” value is given as −56 mmHg and the “Decrease in systolic blood pressure … (hour) 4” value is −20 mmHg.
On the same counts, the results for `Cl.Cl.Nc1ccc(CCCCN2CCC(=C3c4ccccc4C=Cc4ccccc43)CC2)cc1` [Example 195, 1-(4-(4-Aminophenyl)butyl)-4-(5H-dibenzo[a,d]cyclohepten-5-ylidine)piperidine dihydrochloride] are −100 mmHg and −51 mmHg.
On the same counts, the results for “1-Acetoxy-4-(4-(5H-dibenzo[a,d]cyclohepten-5-ylidene)-1-piperidinyl)-(3,4-dimethoxy)phenylButane hydroxybutane hydrochloride [Example 206]” are −61 mmHg and −27 mmHg.
For `Cl.O=C(CCCN1CCC(=C2c3ccccc3C=Cc3ccccc32)CC1)c1ccc(F)cc1` [Example 125, 4-(4-(5H-Dibenzo[a,d]cyclohepten-5-ylidene)-1-piperidinyl)-4′-fluorobutyrophenone hydrochloride], in that order: −93 mmHg and −14 mmHg.
Take `COc1ccccc1CCCN1CCC(=C2c3ccccc3C=Cc3ccccc32)CC1.Cl` [Example 298, 3-(4-(5H-Dibenzo[a,d]cyclohepten-5-ylidene)-1-piperidinyl)-1-(2-methoxyphenyl)propane hydrochloride]: under “dose 10 mg/kg i.v. bolus”, the “Decrease in systolic blood pressure … (hour) 0.5” value was −111 mmHg and the “Decrease in systolic blood pressure … (hour) 4” value is −31 mmHg.
For `Cl.O=[N+]([O-])c1ccc(CCCN2CCC(=C3c4ccccc4C=Cc4ccccc43)CC2)cc1` [Example 247, 3-(4-(5H-Dibenzo[a,d]cyclohepten-5-ylidene)-1-piperidinyl)-1-(4-notrophenyl)propane hydrochloride], in that order: −119 mmHg and −40 mmHg.
For `CCOC(=O)C(CCN1CCC(=C2c3ccccc3C=Cc3ccccc32)CC1)CC1CCCCC1.Cl` (centres unmarked) [Example 259, Ethyl 2-cyclohexylmethyl-4-(4-(5H-dibenzo[a,d]cyclohepten-5-ylidene)-1-piperidinyl)butyrate hydrochloride], in that order: −46 mmHg and −5 mmHg.
For `CCOC(=O)C(CCC1CCCCC1)CN1CCC(=C2c3ccccc3C=Cc3ccccc32)CC1.Cl` (centres unmarked) [Example 262], in that order: −16 mmHg and −3 mmHg.
With `COc1ccc(C(=O)CCCN2CCC(=C3c4ccccc4CCc4ccccc43)CC2)cc1OC.Cl` [Example 187, 4-(4-(10,11-Dihydro-5H-dibenzo[a,d]cyclohepten-5-ylidene)-1-piperidinyl)-3′,4′-dimethoxy-butyrophenone hydrochloride], under “dose 10 mg/kg i.v. bolus”, the “Decrease in systolic blood pressure … (hour) 0.5” value is reported as −47 mmHg and the “Decrease in systolic blood pressure … (hour) 4” value was −9 mmHg.
As for `Cl.Cl.Nc1ccc(C=CCN2CCC(=C3c4ccccc4C=Cc4ccccc43)CC2)cc1` [Example 326, 1-(4-Aminocinnamyl)-4-(5H-Dibenzo[a,d]cyclohepten-5-ylidene)-1-piperidine dihydrochloride], under “dose 1 mg/kg i.v. bolus”, the “Decrease in systolic blood pressure … (hour) 0.5” value is reported as −125 mmHg and the “Decrease in systolic blood pressure … (hour) 4” value is −102 mmHg.
With `C1=Cc2ccccc2C(=C2CCN(Cc3cccc4ccccc34)CC2)c2ccccc21.Cl` [Example 214, 4-(5H-Dibenzo[a,d]cyclohepten-5-ylidene)-1-(1-naphthylmethyl)piperidine hydrochloride], where the note is “dose 10 mg/kg i.v. bolus”, the “Decrease in systolic blood pressure … (hour) 0.5” value is −126 mmHg and the “Decrease in systolic blood pressure … (hour) 4” value is listed as −21 mmHg.
On the same counts, the results for `C=CCC(CCN1CCC(=C2c3ccccc3C=Cc3ccccc32)CC1)C(=O)c1ccc(OC)c(OC)c1.Cl` (centres unmarked) [Example 276, 2-Allyl-4-(4-(5H-dibenzo[a,d]cyclohepten-5-ylidene)-1-piperidinyl)-3′,4′dimethoxybutyrophenone hydrochloride] are −24 mmHg and −1 mmHg.
For `CC(=O)Nc1ccccc1CCCN1CCC(=C2c3ccccc3C=Cc3ccccc32)CC1.Cl.Cl` [Example 252, 1-(2-Acetylaminophenyl)-3-(4-(5H-Dibenzo[a,d]cyclohepten-5-ylidene)-1-piperidinyl)propane dihydrochloride], in that order: −23 mmHg and −5 mmHg.
For `COc1ccccc1CN1CCC(=C2c3ccccc3C=Cc3ccccc32)CC1.Cl` [Example 117, 4-(5H-Dibenzo[a,d]cyclohepten-5-ylidene)-1-(2-methoxybenzyl)piperidine hydrochloride], in that order: −143 mmHg and −25 mmHg.
With `Cl.O=C1CCCCC1CCCCN1CCC(=C2c3ccccc3C=Cc3ccccc32)CC1` (centres unmarked) [Example 215, 2-(4-(4-(5H-Dibenzo[a,d]cyclohepten-5-ylidene)-1-piperidinyl)butyl)cyclohexanone hydrochloride], where the note is “dose 10 mg/kg i.v. bolus”, the “Decrease in systolic blood pressure … (hour) 0.5” value is on record as −128 mmHg and the “Decrease in systolic blood pressure … (hour) 4” value was −14 mmHg.
For `COc1cccc(CCCN2CCC(=C3c4ccccc4C=Cc4ccccc43)CC2)c1OC.Cl` [Example 286, 3-(4-(5H-Dibenzo[a,d]cyclohepten-5-ylidene)-1-piperidinyl)-1-(2,3-dimethoxyphenyl)propane hydrochloride], in that order: −134 mmHg and −40 mmHg.
On the same counts, the results for `CC(=O)Nc1ccc(CCCCN2CCC(=C3c4ccccc4C=Cc4ccccc43)CC2)cc1.Cl.Cl` [Example 197] are −51 mmHg and −26 mmHg.
Turning to “5-(4-(5H-Dibenzo[a,d]cyclohepten-5-ylidene)-1-piperidinyl)-2-phenylvaleronitrile hydrochloride [Example 121]”, where the note is “dose 10 mg/kg i.v. bolus”, the “Decrease in systolic blood pressure … (hour) 0.5” value is given as −42 mmHg and the “Decrease in systolic blood pressure … (hour) 4” value is on record as −19 mmHg.
On the same counts, the results for `Cl.O=C(NCCN1CCCCC1=C1c2ccccc2C=Cc2ccccc21)c1ccc([N+](=O)[O-])cc1` [Example 237, N-(2-(5H-Dibenzo[a,d]cyclohepten-5-ylidene)-1-piperidinyl)ethyl-4-nitrobenzamide hydrochloride] are −65 mmHg and −14 mmHg.
For `C1=Cc2ccccc2C(=C2CCN(CCCCN3CCCCC3)CC2)c2ccccc21` [Example 209, 1-(4-(4-(5H-Dibenzo[a,d]cyclohepten-5-ylidene)-1-piperidinyl)butyl)piperidine dihydroxybutane hydrochloride], in that order: −49 mmHg and −13 mmHg.
As for `Cl.O=S(=O)(CCCN1CCC(=C2c3ccccc3C=Cc3ccccc32)CC1)c1ccccc1` [Example 241, 3-(4-(5H-Dibenzo[a,d]cyclohepten-5-ylidene)-1-piperidinyl)-1-propyl phenylsulphone hydrochloride], for the setting “dose 10 mg/kg i.v. bolus”, the “Decrease in systolic blood pressure … (hour) 0.5” value was −73 mmHg and the “Decrease in systolic blood pressure … (hour) 4” value is recorded as −4 mmHg.
Regarding `COc1ccccc1C=CCN1CCC(=C2c3ccccc3C=Cc3ccccc32)CC1.Cl` [Example 347, 4-(5H-Dibenzo[a,d]cyclohepten-5-ylidene)-1-(2-methoxycinnamyl)piperidine hydrochloride], where the note is “dose 3 mg/kg i.v. bolus”, the “Decrease in systolic blood pressure … (hour) 0.5” value was −116 mmHg and the “Decrease in systolic blood pressure … (hour) 4” value was −53 mmHg.
As for `CC(=O)Nc1ccc(C=CCN2CCC(=C3c4ccccc4C=Cc4ccccc43)CC2)cc1.Cl.Cl` [Example 232, 1-(4-Acetylaminocinnamyl)-4-(5H-dibenzo[a,d]cyclohepten-5-ylidene)piperidine dihydrochloride], where the note is “dose 1 mg/kg i.v. bolus”, the “Decrease in systolic blood pressure … (hour) 0.5” value is reported as −92 mmHg and the “Decrease in systolic blood pressure … (hour) 4” value is −85 mmHg.
As to `Cl.O=[N+]([O-])c1ccccc1CCCN1CCC(=C2c3ccccc3C=Cc3ccccc32)CC1` [Example 250, 3-(4-(5H-Dibenzo[a,d]cyclohepten-5-ylidene)-1-piperidinyl)-1-(2-nitrophenyl)propane hydrochloride], under “dose 10 mg/kg i.v. bolus”, the “Decrease in systolic blood pressure … (hour) 0.5” value is given as −136 mmHg and the “Decrease in systolic blood pressure … (hour) 4” value is −30 mmHg.
